# Measured values from patent EP0480690A1, “Aqueous ophthalmic microemulsions of tepoxalin” (CIBA-GEIGY AG, priority 1990, dated 1992).
# How the values were obtained:
# [1] = Solubility studies on tepoxalin in various vehicles; format: physicochemical
# Source text: The low aqueous solubility of tepoxalin prompted solubility experiments with oils, surfactants, hydroxypropyl-beta-cyclodextrin, and combinations thereof. These experiments are summarized above in Table 1. A tepoxalin content of greater than 0.1% could be attained with a microemulsion using 1% castor oil and 2% of a Tween (polysorbate). […] The sequence of adding, mixing, and sonicating the drug and excipients is important in attaining a concentration greater than 0.1%.
# Thus, 0.134% of the 0.15% drug in the emulsion resides in the interface.
# [2] = Accelerated degradation of tepoxalin (16 hours at 100°C, HPLC); format: physicochemical
# Procedure: The results of the first stability study prompted an investigation for a way to reformulate. Tepoxalin appears to hydrolyze at the amide group to form a carboxylic acid. An accelerated procedure has been developed to observe this degradation within 16 hours. The sample is analyzed by reversed-phase HPLC using a diode array for detection. […] With disodium Edetate in the microemulsion, the drug degraded at and above pH 7.0; degradation was minimal at pH's 5.0, 5.5 and 6.0. Thus, a second stability study was begun with 0.03% disodium Edetate in the formulation and the pH adjusted to 5.9 - 6.1 with a citric acid/sodium phosphate dibasic buffer.
# A number of experiments were performed in succession in order to elucidate a mechanism for the degradation of tepoxalin in water and in the microemulsion and to determine optimum conditions for the tepoxalin microemulsion. The drug is suspected of vulnerability to acid and base catalysis of its […] amide group forming a carboxylic acid. The experiments and results: • (a) 0.1% tepoxalin was dissolved in 50:50 water: ethanol and aliquots were pH adjusted with 1M NaOH to 5.0, 6.0, 7.0, 8.0 and 12.6. The aliquots were heated in capped reaction vials for 16 hours at 100°C.
# Two drops of 1M citric acid solution were added to an aliquot (1 ml) and the pH was adjusted with 1.0 M sodium phosphate dibasic to pH 5.0, 6.0, 7.0, and 7.6. The samples were heated as before.
# The chromatograms show two major degradation products: one eluting before tepoxalin and another after.
# The optimum pH appears between pH 6.2 and 6.4, but there is still significant degradation. • (d) The previous experiment (c) was repeated with disodium Edetate 0.03% in each sample and with the same pH range.
# The presence of the second degradate that elutes before tepoxalin is also minimal. • (e) Experiment (d) was repeated with a broader pH range: 5.0, 5.5, 6.0, and 7.0.
# [3] = tested on: rabbit cornea; assay: In vitro corneal penetration in modified Ussing chambers; format: in vitro ADME; conditions: 0.1% suspension and 0.1% microemulsion, 0 to 240 minutes
# Procedure: Modified Ussing type chambers (H.F. Edelhauser, J.R. Hoffert, P.O. Fromm, Invest. Ophthalmol. Vis. Sci., 4:290-296 (1965)) designed with 2.5 ml donor and 2.5 ml receiver cells (separated by the cornea which is mounted between two sealing rings) are used for the studies to determine penetration of the cornea by the microemulsions of the invention. The system is 2-chambered (in vitro cells) (see Figure 1) and is designed to monitor the penetration of drug entities across biological membranes. Usually the cells are temperature controlled by means of an exterior water jacket; the stirring of the dosing and receiving solutions in the cells is achieved by bubbling a gas through the cells. In the case of the cornea, the gas is a mixture of 5% CO₂ balanced with oxygen, to maintain physiological Ph.
# The eyes were enucleated with the conjunctival sac and lids attached. The cornea was excised and mounted using the Dikstein and Maurice Technique (S. Dikstein and D.M. Maurice, J. Physiol., 221: 29-41 (1972)). […]
# 100 µl Aliquots were sampled from the receiver side over a 4-hour period (0, 15, 30, 45, 60, 90, 120, 180 and 240 minutes). […] The mounted corneas were removed from the cells and the percentage hydration calculated by weighing the isolated tissue before and after drying (the corneas were placed in an oven overnight at 45°C). […] Untreated corneas were assessed as controls. […]
structure (smiles),measurement,setting,value
"COc1ccc(-n2nc(CCC(=O)N(C)O)cc2-c2ccc(Cl)cc2)cc1 [Tepoxalin, 3-[5-(4-chlorophenyl)-1-(4-methoxyphenyl)-3-pyrazolyl]-N-hydroxy-N-methylpropanamide]",Tepoxalin Solubility,"[1]; Matrix: Water, Neat",0.00044%
same,Tepoxalin Solubility,"[1]; Oil, Surfactant Microemulsion: castor oil 1%, Tween 60 2%",0.15%
same,Tepoxalin Solubility,"[1]; Oil, Surfactant Microemulsion: castor oil 1%, Tween 80 2% (tepoxalin is added after microemulsion)",0.085%
same,Tepoxalin Solubility,"[1]; Oil, Surfactant Microemulsion: castor oil 1%, Tween 80 2% (tepoxalin is added before emulsion is prepared)",0.147%
same,Tepoxalin Solubility,"[1]; Oil, Surfactant Microemulsion: castor oil 2%, Tween 80 2%",0.106%
same,Tepoxalin Solubility,"[1]; Oil, Surfactant Microemulsion: castor oil 3%, Pluronic P-105 7%",0.108%
same,Tepoxalin Solubility,"[1]; Oils: Cottonseed, Neat",0.06%
same,Tepoxalin Solubility,"[1]; Oils: castor, Neat",1.6%
same,Tepoxalin Solubility,"[1]; Oils: mineral, Neat",0.0%
same,Tepoxalin Solubility,"[1]; Oils: perfluoro-decalin, Neat",0.0%
same,Tepoxalin Solubility,"[1]; Oils: sesame, Neat",0.4%
same,Tepoxalin Solubility,"[1]; Oils: sunflower Seed, Neat",0.4%
same,Tepoxalin Solubility,"[1]; Surfactant and HP-β-CD Solution: HP-β-CD 5%, Tween 80 2%",0.097%
same,Tepoxalin Solubility,"[1]; Surfactant and HP-β-CD Solution: HP-β-CD 10%, Tween 80 1%",0.113%
same,Tepoxalin Solubility,"[1]; Surfactants: Pluronic F-127, aqueous 6%",0.035%
same,Tepoxalin Solubility,"[1]; Surfactants: Pluronic P-105, aqueous 6% w/w",0.099%
same,Tepoxalin Solubility,"[1]; Surfactants: Tween 20, aqueous 2%",0.053%
same,Tepoxalin Solubility,"[1]; Surfactants: Tween 40, aqueous 2%",0.066%
same,Tepoxalin Solubility,"[1]; Surfactants: Tween 60, aqueous 2%",0.079%
same,Tepoxalin Solubility,"[1]; Surfactants: Tween 80, aqueous 1%",0.030%
same,Tepoxalin Solubility,"[1]; Surfactants: Tween 80, aqueous 2%",0.089%
same,Tepoxalin Solubility,"[1]; Surfactants: Tween 80, aqueous 3%",0.099%
same,Tepoxalin Solubility,"[1]; Surfactants: Tween 80, aqueous 6%",0.120%
same,Maximum tepoxalin solubility for castor oil,[1]; castor oil,1.6%
same,tepoxalin content,[1]; microemulsion using 1% castor oil and 2% of a Tween (polysorbate),greater than 0.1%
same,drug in the emulsion that resides in the interface,"[1]; of the 0.15% drug in the emulsion, 1% castor oil dispersed",0.134%
same,degradation of tepoxalin,"[2]; 0.1% microemulsion (castor oil, Tween 60, citrate/phosphate buffer), pH 5.0, 6.0, 7.0, 7.6, no Edetate, 16 hours at 100°C",The degradation occurs greatest at pH 5.0 and 7.6
same,degradation of tepoxalin,"[2]; 0.1% tepoxalin in 50:50 water:ethanol, pH 5.0, 6.0, 7.0, 8.0, 12.6, 16 hours at 100°C","a degradation peak eluting after tepoxalin in samples at pH 6, 7, 8, 12.6 but not at pH 5.0"
same,pH of optimum stability,"[2]; microemulsion with disodium Edetate 0.03%, from tepoxalin peak areas and heights",optimum stability between 5.5 and 6.0
same,degradation of tepoxalin,"[2]; microemulsion with disodium Edetate 0.03%, pH 5.0, 5.5, 6.0 and 7.0","Degradation was minimal at pH 5.0, 5.5, and 6.0"
same,degradation of tepoxalin,"[2]; microemulsion with disodium Edetate 0.03%, pH 6.0 to 7.0",Degradation is minimal at pH 6.0 and increases with pH to 7.0
same,pH of minimum degradation,"[2]; microemulsion without Edetate, pH range 5 to 7.6",6.2 - 6.4
same,penetration of tepoxalin across the cornea,[3],penetrating the cornea from both formulations
